Measured values taken from US12181409B2, “Cell imaging composition and cellular material imaging method using same” (EWHA UNIVERSITY-INDUSTRY COLLABORATION FOUNDATION, priority 2019, dated 2024).

Tests used:
[1] = tested on: mitochondria in HeLa cells; test: Colocalization of Compound 1 with MitoTracker Deep Red, confocal microscopy; format: cell-based; settings: 10 μM Compound 1 and 50 nM MitoTracker Deep Red, 30 minutes
Method: FIGS. 10A to 10C show fluorescence images of mitochondria in a cell by Compound 1 (excitation at 405 nm/emission at 490 nm to 590 nm) (FIG. 10A), Mitotracker Deep Red (excitation at 635 nm/emission at 655 nm to 755 nm) (FIG. 10B), and Compound 1 and Mitotracker Deep Red merged (FIG. 10C), respectively, acquired by confocal microscopy after HeLa cells were incubated with 10 μM Compound 1 and 50 nM Mitotracker Deep Red for 30 min, according to an example of the present disclosure.
Referring to FIGS. 10A to 10E, HeLa cells were incubated with 10 μM Compound 1 and 50 nM MitoTracker Deep Red for 30 minutes and a fluorescent image of the mitochondria in the cells was obtained by confocal microscopy.

[2] = tested on: HeLa cells; test: Colocalization of Compound 1 with ER-Tracker Red, confocal microscopy; format: cell-based; settings: 10 μM Compound 1 and 1 μM ER-Tracker Red, 30 minutes
Method: FIGS. 11A to 11C show fluorescence images of mitochondria in a cell by Compound 1 (excitation at 405 nm/emission at 490 nm to 590 nm) (FIG. 11A), ER(endoplasmic reticulum)-tracker Red (excitation at 559 nm/emission at 576 nm to 675 nm) (FIG. 11B), and Compound 1 and ER-tracker Red merged (FIG. 11C), respectively, acquired by confocal microscopy after HeLa cells were incubated with 10 μM Compound 1 and 1 μM ER-tracker Red for 30 min, according to an example of the present disclosure.
Referring to FIGS. 11A to 11C, HeLa cells were incubated with 10 μM Compound 1 and 1 μM ER-Tracker Red for 30 minutes and a fluorescent image of the mitochondria in the cells was obtained by confocal microscopy.

[3] = tested on: HeLa cells; test: Cytotoxicity test (MTT); format: cell-based; settings: 30 μM Compound 1, 24 hours, MTT 4 hours, untreated sample = 100%
Method: Referring to FIG. 13, HeLa cells were treated with various concentrations of Compound 1 for 24 hours, cultured in a medium containing MTT for 4 hours, and then the viability of the cells depending on the concentration of Compound 1 was checked. When the absorbance of a sample not treated with Compound 1 was set to 100%, it was confirmed that the cells treated with 30 μM Compound 1 survived about 80%.

[4] = biological target: T1, HSA (Homo sapiens, UniProt P02768); test: Fluorescent imaging of various proteins; format: biochemical; settings: 3 μM Compound 1, various proteins in DMSO, 0.5 hours and 1.5 hours
Method: FIGS. 14D(i) to 14D(vi) show fluorescence imaging of proteins measured after incubating 3 μM Compound 1 with various proteins in DMSO for 0.5 hours and 1.5 hours, respectively (λex=410 nm), according to an example of the present disclosure.
After 3 μM Compound 1 and various types of proteins in DMSO were incubated for 0.5 hours and 1.5 hours, fluorescence intensity profiles and fluorescent images depending on the types of proteins were compared.

[5] = biological target: T1, HSA; test: Fluorescent imaging of HSA protein at various pH values; format: biochemical; settings: buffer solutions at pH 7.4, pH 7.5 and pH 8.5
Method: After Compound 1 and HSA protein were incubated in buffer solutions at various pH values, fluorescence intensity profiles and fluorescent images depending on pH were compared.

T1 sequence (P02768 25-609): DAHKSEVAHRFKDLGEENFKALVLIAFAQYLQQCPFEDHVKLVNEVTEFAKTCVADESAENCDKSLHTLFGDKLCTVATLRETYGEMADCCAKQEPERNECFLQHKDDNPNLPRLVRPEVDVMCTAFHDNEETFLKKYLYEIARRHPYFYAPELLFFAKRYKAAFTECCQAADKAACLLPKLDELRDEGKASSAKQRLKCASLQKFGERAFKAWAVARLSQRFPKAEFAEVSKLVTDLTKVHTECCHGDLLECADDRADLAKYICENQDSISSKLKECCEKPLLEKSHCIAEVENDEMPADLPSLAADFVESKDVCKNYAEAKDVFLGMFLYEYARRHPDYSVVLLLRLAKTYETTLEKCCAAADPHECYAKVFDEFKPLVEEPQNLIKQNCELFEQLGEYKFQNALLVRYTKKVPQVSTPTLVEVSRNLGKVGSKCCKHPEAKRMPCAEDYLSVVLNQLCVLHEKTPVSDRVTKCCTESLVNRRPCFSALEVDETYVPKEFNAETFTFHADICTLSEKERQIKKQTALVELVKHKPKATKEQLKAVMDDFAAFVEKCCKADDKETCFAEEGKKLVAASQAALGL

## O=C(c1ccccc1)c1ccccc1NCc1ccccc1B(O)O [Compound 1]
[1]
  Pearson correlation coefficient: 0.81±0.02
  degree of agreement of fluorescent image: about 81%
[2]
  Pearson correlation coefficient: 0.85±0.01
  degree of agreement of fluorescent image: about 85%
[3]
  cell viability (survival): about 80%
[4]
  fluorescent imaging performance and selectivity among proteins: fluorescent imaging performance and selectivity specific to HSA
[5]
  fluorescent imaging performance for HSA depending on pH: fluorescent imaging performance specific to HSA protein
